Measurements from patent publication US6653317B2, “Pyrimidine 3-oxide compounds for inducing/stimulating hair growth and/or retarding hair loss” (Societe l'Oreal S.A., priority 1998, dated 2003).

Biological target: T1, prostaglandin endo-peroxidesynthase (PGHS-1) (Ovis aries, UniProt P05979)
T1 construct: isolated from sheep seminal glands; purchased Cayman Chemical 60100; host or cells: sheep seminal glands (tissue-derived)
T1 sequence (P05979 25-600): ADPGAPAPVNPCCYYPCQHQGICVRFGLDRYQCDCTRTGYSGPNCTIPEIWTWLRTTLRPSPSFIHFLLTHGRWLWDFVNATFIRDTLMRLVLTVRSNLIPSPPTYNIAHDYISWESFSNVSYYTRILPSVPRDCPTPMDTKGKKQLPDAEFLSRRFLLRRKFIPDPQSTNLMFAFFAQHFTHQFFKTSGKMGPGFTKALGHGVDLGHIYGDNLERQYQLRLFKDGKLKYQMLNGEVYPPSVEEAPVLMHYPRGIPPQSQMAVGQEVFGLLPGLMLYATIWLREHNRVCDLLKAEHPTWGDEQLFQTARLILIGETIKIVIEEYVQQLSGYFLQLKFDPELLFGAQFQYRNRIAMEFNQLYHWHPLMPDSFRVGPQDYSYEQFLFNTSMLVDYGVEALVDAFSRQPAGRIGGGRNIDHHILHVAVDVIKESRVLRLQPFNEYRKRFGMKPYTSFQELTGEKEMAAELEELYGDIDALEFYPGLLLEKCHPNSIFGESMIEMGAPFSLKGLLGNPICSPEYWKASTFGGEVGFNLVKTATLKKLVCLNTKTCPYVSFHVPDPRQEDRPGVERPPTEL
Test: Measurement of the prostaglandin-endoperoxide synthase (PGHS-1) activating power (oxygen consumption, Clark electrode)
Assay type: biochemical, sheep
Conditions: test compound 0.5 mM; oxidation of arachidonic acid, 37° C., pH 8.00; % relative to the values obtained with the control
Experimental: The amount of oxygen required for the oxidation of arachidonic acid was measured by means of the cyclooxygenase activity of the prostaglandin-endo-peroxide synthase, in the presence or absence of the test compound.
The oxygen consumption measurements were taken using a Clark electrode connected to a YSI 5300 oxymeter marketed by Yellow Spring Instruments.
These measurements were taken in an open chamber with constant stirring at a temperature of 37° C.
If a graph recorder was used, the oxygen consumption measurement is expressed in the form of a curve, the maximum slope of which makes it possible to determine the initial rate of the reaction, and from which it is possible to calculate the period for which the initial reaction rate is maintained.
The curve thus obtained, in the absence of any substance other than the ingredients required for the enzymatic reaction, provides the basal activity of the enzyme. The initial rate and the period for which this rate is maintained can be determined under these conditions in a reaction comprising only the enzyme and its substrate.
The activity of the test compounds was measured under the same conditions, by adding the test compound to the reaction medium. The activity of the test compound with respect to cyclooxygenase was evaluated by means of the variation of the slope and the variation of the period for which the maximum rate was maintained.
A solution of 0.1 M Tris and 5 mM EDTA at pH=8.00 (TE solution) was prepared.
The substrate was formulated in the form of a stock solution of potassium arachidonate according to the supplier's procedure (Interchim, France).
The test compounds were prepared in the form of a stock solution with a titre of 5 mM, in a water/alcohol mixture (80/20) and were tested with the same batch of enzyme.
At t=0, 380 μl of TEA buffer preheated to 37° C. were introduced into the measuring chamber and maintained to equilibrate for at least one minute.
At t=1, 300 units of enzyme (PGHS) were introduced.
Recording was initiated, and the mixture was again permitted to stabilize for one minute. The recording obtained provided the reaction baseline.
After a further minute, 10 μl of substrate were introduced and the oxygen consumption was recorded for 2 to 3 minutes.
The initial reaction rate and the period for which this rate was maintained were thus determined.
The experimental conditions were identical to those above, except that the TEA buffer preheated to 37° C. was replaced by an identical buffer containing the test compound at a concentration of 0.5 mM.
The following results are expressed as a % relative to the values obtained with the control.

| SMILES | Activation |
| --- | --- |
| CCCCCCCCCCCCNc1ccnc(N)[n+]1[O-] [Example 2, 2-Amino-4-dodecylaminopyrimidine 3-Oxide] | +11% |
| CCCCCCNc1ccnc(N)[n+]1[O-] [Example 1, 2-Amino-4-hexylaminopyrimidine 3-Oxide] | +37% |
| CCCCCCCCNc1ccnc(N)[n+]1[O-] [Example 3, 2-Amino-4-octylaminopyrimidine 3-Oxide] | +14% |
| CCCCCCCCNc1cc(OCCCC)nc(N)[n+]1[O-] [Example 17, 2-Amino-4-octylamino-6-butyloxypyrimidine 3-Oxide] | +8% |
